Experiments:
β-secretase II (BACE2) = molecular target: T1, β-secretase II (BACE2) (Homo sapiens, UniProt Q9Y5Z0); assay: Automated (CyclOps) biochemical assay BACE2
T1 sequence (Q9Y5Z0 63-518): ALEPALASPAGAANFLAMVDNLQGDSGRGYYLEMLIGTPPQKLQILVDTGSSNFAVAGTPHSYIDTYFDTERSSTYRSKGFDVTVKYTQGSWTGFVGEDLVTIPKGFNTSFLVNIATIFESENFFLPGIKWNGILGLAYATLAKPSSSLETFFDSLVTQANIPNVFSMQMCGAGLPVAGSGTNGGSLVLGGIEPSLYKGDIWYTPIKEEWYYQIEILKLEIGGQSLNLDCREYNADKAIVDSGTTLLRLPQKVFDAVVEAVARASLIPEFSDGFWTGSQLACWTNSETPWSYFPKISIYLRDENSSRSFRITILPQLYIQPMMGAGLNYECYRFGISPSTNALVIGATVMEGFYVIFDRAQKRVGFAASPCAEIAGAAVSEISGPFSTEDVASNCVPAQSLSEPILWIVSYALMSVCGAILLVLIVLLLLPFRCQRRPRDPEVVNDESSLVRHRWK

β-secretase I (BACE1) = β-secretase I (BACE1) (Homo sapiens, UniProt P56817); assay: Automated (CyclOps) biochemical assay BACE1
Chain of β-secretase I (BACE1) (P56817 46-501): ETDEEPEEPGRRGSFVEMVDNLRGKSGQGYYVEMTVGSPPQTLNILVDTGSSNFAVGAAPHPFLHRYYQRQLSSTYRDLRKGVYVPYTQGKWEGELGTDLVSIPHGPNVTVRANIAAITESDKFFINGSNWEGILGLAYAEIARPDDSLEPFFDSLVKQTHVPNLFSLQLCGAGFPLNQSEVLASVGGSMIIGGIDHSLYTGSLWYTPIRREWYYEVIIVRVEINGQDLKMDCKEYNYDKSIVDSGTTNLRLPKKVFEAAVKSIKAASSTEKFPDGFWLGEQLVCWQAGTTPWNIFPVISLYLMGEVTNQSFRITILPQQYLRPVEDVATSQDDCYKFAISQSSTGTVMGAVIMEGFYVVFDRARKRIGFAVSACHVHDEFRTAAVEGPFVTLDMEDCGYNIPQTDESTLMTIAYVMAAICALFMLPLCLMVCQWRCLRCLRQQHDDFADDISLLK

Row | IC50 (β-secretase II (BACE2)) [nM] | IC50 (β-secretase I (BACE1)) [nM] | Structure (SMILES)
1 | 871 | 324 | COc1ncc(C(=O)N2CCN(c3nccs3)CC2)c2c1C[C@]1(c3ccc(F)cc3F)N=C(N)SC[C@@H]1C2 [Compound 7]
2 | 138 | 53.7 | COc1ncc(C(=O)Nc2ccncc2)c2c1C[C@]1(c3ccc(F)cc3F)N=C(N)SC[C@@H]1C2 [Compound 16]
3 | 30.2 | 8.51 | COc1ncc(C(=O)N(C)Cc2ccncc2)c2c1C[C@]1(c3ccc(F)cc3F)N=C(N)SC[C@@H]1C2 [Compound 18]
4 | 195 | 50.1 | COc1ncc(C(=O)N2CCCCC2)c2c1C[C@]1(c3ccc(F)cc3F)N=C(N)SC[C@@H]1C2 [Compound 20]
5 | 63.1 | 61.7 | COc1cccc(N2CCN(C(=O)c3cnc(OC)c4c3C[C@H]3CSC(N)=N[C@@]3(c3ccc(F)cc3F)C4)CC2)c1 [Compound 24]
6 | 507 | 15.7 | COc1ncc(C(=O)N2CCC(c3ccncc3)C2)c2c1C[C@]1(c3ccc(F)cc3F)N=C(N)SC[C@@H]1C2 (stereo partly shown) [Compound 26]
7 | 4170 | 955 | COc1ncc(C(=O)N2CCN(C(C)=O)CC2)c2c1C[C@]1(c3ccc(F)cc3F)N=C(N)SC[C@@H]1C2 [Compound 27]
8 | 724 | 138 | COc1ncc(CNC(=O)c2ccncc2C(F)(F)F)c2c1C[C@]1(c3ccc(F)cc3F)N=C(N)SC[C@@H]1C2 [Compound 35]
9 | 389 | 182 | COc1cccc(C(=O)NCc2cnc(OC)c3c2C[C@H]2CSC(N)=N[C@@]2(c2ccc(F)cc2F)C3)n1 [Compound 39]
10 | 97.7 | 20.9 | COc1ncc(CNC(=O)c2cccnc2F)c2c1C[C@]1(c3ccc(F)cc3F)N=C(N)SC[C@@H]1C2 [Compound 43]
11 | 79.4 | 41.7 | COc1ncc(CNC(=O)CN2CCOCC2)c2c1C[C@]1(c3ccc(F)cc3F)N=C(N)SC[C@@H]1C2 [Compound 44]
12 | 209 | 25.7 | COc1ncccc1C(=O)NCc1cnc(OC)c2c1C[C@H]1CSC(N)=N[C@@]1(c1ccc(F)cc1F)C2 [Compound 47]

Continued, compound first:

Row | Structure (SMILES) | IC50 (β-secretase II (BACE2)) [nM] | IC50 (β-secretase I (BACE1)) [nM]
13 | COc1cccc(C2CCN(C(=O)c3cnc(OC)c4c3C[C@H]3CSC(N)=N[C@@]3(c3ccc(F)cc3F)C4)C2)c1 (single isomer, unassigned) [Compound 25] | 88.1 | 14.8
14 | COc1ncc(C(=O)N2CCN(c3cccnc3)CC2)c2c1C[C@]1(c3ccc(F)cc3F)N=C(N)SC[C@@H]1C2 [Compound 5] | 324 | 145
15 | COc1ncc(C(=O)N2CCC(C#N)C2)c2c1C[C@]1(c3ccc(F)cc3F)N=C(N)SC[C@@H]1C2 (stereo partly shown) [Compound 6] | 282 | 56.2
16 | COc1ncc(C(=O)N2Cc3cccnc3C2)c2c1C[C@]1(c3ccc(F)cc3F)N=C(N)SC[C@@H]1C2 [Compound 8] | 3550 | 1000
17 | COc1ncc(C(=O)N2CC(C)OC(C)C2)c2c1C[C@]1(c3ccc(F)cc3F)N=C(N)SC[C@@H]1C2 (stereo partly shown) [Compound 9] | 2140 | 363
18 | COc1ncc(C(=O)N2CCN(C(=O)C3CC3)CC2)c2c1C[C@]1(c3ccc(F)cc3F)N=C(N)SC[C@@H]1C2 [Compound 10] | 1450 | 490
19 | COCC1CCN(C(=O)c2cnc(OC)c3c2C[C@H]2CSC(N)=N[C@@]2(c2ccc(F)cc2F)C3)CC1 [Compound 11] | 776 | 155
20 | COc1ncc(C(=O)N2CCS(=O)(=O)CC2)c2c1C[C@]1(c3ccc(F)cc3F)N=C(N)SC[C@@H]1C2 [Compound 12] | 832 | 501
21 | COc1ncc(C(=O)N2CCOC(c3cccc(C)c3)C2)c2c1C[C@]1(c3ccc(F)cc3F)N=C(N)SC[C@@H]1C2 (stereo partly shown) [Compound 13] | 309 | 69.2
22 | COc1ncc(C(=O)N2CCC(Oc3ccc(F)cc3)CC2)c2c1C[C@]1(c3ccc(F)cc3F)N=C(N)SC[C@@H]1C2 [Compound 14] | 38.9 | 11
23 | COc1ncc(C(=O)N2CCN(c3ccncc3)CC2)c2c1C[C@]1(c3ccc(F)cc3F)N=C(N)SC[C@@H]1C2 [Compound 17] | 2370 | 158
24 | COc1ncc(C(=O)N2C[C@H]3CC[C@@H](C2)O3)c2c1C[C@]1(c3ccc(F)cc3F)N=C(N)SC[C@@H]1C2 [Compound 19] | 117 | 18.6
25 | COc1ncc(C(=O)N(C)c2ccncc2)c2c1C[C@]1(c3ccc(F)cc3F)N=C(N)SC[C@@H]1C2 [Compound 21] | 324 | 112
26 | COc1ncc(C(=O)N2CCCC(OC)C2)c2c1C[C@]1(c3ccc(F)cc3F)N=C(N)SC[C@@H]1C2 (stereo partly shown) [Compound 23] | 324 | 61.7
27 | COc1ncc(CNC(=O)c2ccc(C#N)cc2)c2c1C[C@]1(c3ccc(F)cc3F)N=C(N)SC[C@@H]1C2 [Compound 33] | 178 | 57.5
28 | COc1ccccc1C(=O)NCc1cnc(OC)c2c1C[C@H]1CSC(N)=N[C@@]1(c1ccc(F)cc1F)C2 [Compound 34] | 537 | 219
29 | COc1ncc(CNC(=O)c2cnc(C(F)(F)F)nc2)c2c1C[C@]1(c3ccc(F)cc3F)N=C(N)SC[C@@H]1C2 [Compound 36] | 36.3 | 21.9
30 | COc1ncc(CNC(=O)c2ncc(F)cc2F)c2c1C[C@]1(c3ccc(F)cc3F)N=C(N)SC[C@@H]1C2 [Compound 37] | 70.8 | 25.1
31 | COc1ncc(CNC(=O)c2ccncc2F)c2c1C[C@]1(c3ccc(F)cc3F)N=C(N)SC[C@@H]1C2 [Compound 38] | 115 | 19.1
32 | COc1ncc(CNC(=O)c2cccnc2C)c2c1C[C@]1(c3ccc(F)cc3F)N=C(N)SC[C@@H]1C2 [Compound 40] | 186 | 112
33 | COc1cc(C(=O)NCc2cnc(OC)c3c2C[C@H]2CSC(N)=N[C@@]2(c2ccc(F)cc2F)C3)c(OC)nn1 [Compound 41] | 513 | 79.4
34 | COc1ncc(CNC(=O)c2cnoc2C(C)C)c2c1C[C@]1(c3ccc(F)cc3F)N=C(N)SC[C@@H]1C2 [Compound 42] | 138 | 74.1
35 | COc1ncc(CNC(=O)c2cccnc2)c2c1C[C@]1(c3ccc(F)cc3F)N=C(N)SC[C@@H]1C2 [Compound 45] | 29.5 | 8.51
36 | CCOc1ncccc1C(=O)NCc1cnc(OC)c2c1C[C@H]1CSC(N)=N[C@@]1(c1ccc(F)cc1F)C2 [Compound 46] | 407 | 36.3
37 | COc1cc(OC)nc(C(=O)NCc2cnc(OC)c3c2C[C@H]2CSC(N)=N[C@@]2(c2ccc(F)cc2F)C3)n1 [Compound 49] | 178 | 34.7
38 | COc1ncc(CNC(=O)c2ccncn2)c2c1C[C@]1(c3ccc(F)cc3F)N=C(N)SC[C@@H]1C2 [Compound 50] | 309 | 115

Source: patent publication US20190389882A1, “INHIBITORS OF BETA SECRETASE” (Janssen Pharmaceutica NV, priority 2017, published 2019)
